Experimental data reported in patent US8557790B2, “A3 adenoside receptor agonists for the reduction of intraocular pressure” (Can-Fite Biopharma Ltd., priority 2009, dated 2013).
“Also recorded” adds a separate entry of the source.

Test system: patients with moderate-to-severe Keratoconjunctivitis Sicca (KCS)
Assay: Phase 2 randomized, double-masked, placebo-controlled clinical study of oral IB-MECA; IOP measured at baseline and week 12
Assay type: in vivo, human
Procedure: A clinical study was conducted in patients with dry eye symptoms. The patients received an oral administration of IB-MECA at a dose of 1 mg or placebo, twice daily.
This study was a Phase 2, randomized, double-masked, placebo-controlled, parallel-group study in adult males and females, aged 18 years and over, with a diagnosis of moderate-to-severe Keratoconjunctivitis Sicca (KCS). Patients were randomized to receive either IB-MECA 1 mg or matching placebo, given orally, twice daily, for 12 weeks. A Screening Period of up to 4 weeks that includes a 2-week run-in period preceded a 12-week treatment period, followed by a 2-week follow-up period.
Some patients received either the IB-MECA capsules or a matching placebo and others received the IB-MECA tablets or a matching placebo.
Eligible patients to be included in the study were adult males or females, aged 18 years and over, with a diagnosis of moderate-to-severe KCS as defined by: • (1) at least 1 of the following ocular symptoms scored at ≧2, where 0=none and 4=very severe/interferes with normal activities: photophobia, blurred vision, foreign body sensation, soreness or pain, itching, burning, dryness; AND • (2) ST (without anesthesia)<7 mm/5 min in either eye; AND • (3) Positive FS, defined as a corneal punctuate fluorescein staining score of ≧1 in either eye, where 0=none and 3=severe. Use of topical ocular treatments was banned during the course of the study other than unreserved artificial tears (REFRESH) up to 8 times/day for the duration of the trial. Also banned was periocular cosmetic application. (c) Patients' Exclusion Criteria
Patients were excluded from the study if they had Sjögren's Syndrome with significant systemic non-exocrine gland involvement, Stevens-Johnson Syndrome, post-burn ocular injury, or chronic ocular disease other than KCS requiring topical treatment. Excluded were also patients being administered topical cyclosporine eye drops or systemic cyclosporine within 3 months prior to the Screening Visit; disease-modifying drugs, including methotrexate and biological agents, whose dose has been changed within 3 months prior to the Screening Visit or was expected to change during the trial; oral corticosteroids>10 mg prednisone, or equivalent, per day; or topical steroids within 2 weeks prior to the Screening Visit and for the duration of the study. […]

[1] = baseline to week 12, 1 mg orally twice daily, N=35

For `CNC(=O)[C@H]1O[C@@H](n2cnc3c(NCc4cccc(I)c4)ncnc32)[C@H](O)[C@@H]1O` [IB-MECA, N^6-(3-iodobenzyl)-adenosine-5′-N-methyluronamide], the “IOP % change, Mean” value [1] was −6.07%, the “IOP change, Mean” value [1] was −1.14 and the “decrease in IOP (% change)” value (baseline to week 12, versus 1.95% in the placebo group, p<0.05) was 6.07%. For the same molecule, the “IOP week 12, Mean” value (end of 12 weeks treatment, 1 mg orally twice daily, N=35) was 13.00, the “effect on IOP (in words)” value (human subjects, oral 1 mg twice daily, tested subjects in general and patients with elevated IOP in particular) was “decreasing IOP; also recorded: lowering of intraocular pressure; also recorded: much more pronounce decrease in IOP than the placebo group” and the “effect on dry eye symptoms (in words)” value (patients with dry eye symptoms, oral 1 mg twice daily) was “amelioration of some of the dry eye symptoms”. The “IOP at baseline, Mean” value (prior to first treatment, KCS patients, capsules and tablets pooled, N=35) was 14.14.
